# Data: patent US20200368312A1 (priority 2017, published 2020)
# Where two headings read alike, the source gives them in different places.
# Tests used:
# [1] = system: quality control strain ATCC 29213 (MSSA); assay: MIC, CLSI-guided broth susceptibility testing (Example 10); assay type: cell-based, Staphylococcus aureus
# Experimental: (§1) MIC Testing: Glycopeptide compounds were dissolved in 100% DMSO. In vitro activities were determined using CLSI-guided broth susceptibility testing to measure drug minimum inhibitory concentrations (MICs) of the compounds against the quality control strain ATCC 29213 (MSSA) and the MRSA isolate ATCC BAA-1556. Glycopeptides are defined as compounds of Formula (I), and their respective R^1, R^2, R^3 and R^4 groups. X is —O— for each compound in Table 2.
# [2] = system: MRSA isolate ATCC BAA-1556; assay: as above; assay type: cell-based, Staphylococcus aureus
# Experimental: as §1
# [3] = system: P. micros; assay: Broth microdilution MIC, P. micros (Table 7); assay type: cell-based; conditions: P. micros MMX 3546
# [4] = system: S. epidermidis (CoNS); assay: Broth microdilution MIC, S. epidermidis (CoNS) (Table 7); assay type: cell-based
# [5] = system: S. lugdenensis (CoNS); assay: Broth microdilution MIC, S. lugdenensis (CoNS) (Table 7); assay type: cell-based; conditions: S. lugdenensis (CoNS) MMX 8724
# [6] = system: Enterococci; assay type: cell-based
# [7] = system: Clostridium difficile; assay: Broth microdilution MIC, C. difficile, anaerobic, supplemented Brucella Broth (Example 11, Table 7); assay type: cell-based
# [8] = system: S. haemolyticus (CoNS); assay: Broth microdilution MIC, S. haemolyticus (CoNS) (Table 7); assay type: cell-based; conditions: S. haemolyticus (CoNS) MMX 529 ATCC 29970
# [9] = system: Streptococci; assay: Broth microdilution MIC, Streptococci (Example 11, Table 7); assay type: cell-based
# [10] = system: P. acnes; assay: Broth microdilution MIC, P. acnes (Table 7); assay type: cell-based
# [11] = system: C. perfringens; assay type: cell-based; conditions: C. perfringens MMX 8351 ATCC 13124
# [12] = system: P. anaerobius; assay: Broth microdilution MIC, P. anaerobius (Table 7); assay type: cell-based; conditions: P. anaerobius MMX 1208 ATCC 27337
# [13] = system: Staphylococcus aureus; assay: microbe, parasite or virus in culture; assay type: cell-based
# [14] = system: S. hominis (CoNS); assay: Broth microdilution MIC, S. hominis (CoNS) (Table 7); assay type: cell-based; conditions: S. hominis (CoNS) MMX 667 ATCC 27844
smiles,measurement,setting,value
CCCCCCCCCCNCCN[C@@]1(C)C[C@H](O[C@H]2[C@H](Oc3c4cc5cc3Oc3ccc(cc3Cl)[C@@H](O)[C@@H](NC(=O)[C@@H](CC(C)C)NC)C(=O)N[C@@H](CC(N)=O)C(=O)N[C@H]5C(=O)N[C@H]3C(=O)N[C@H](C(=O)N[C@H](C(=O)O)c5cc(O)c(CNCP(=O)(O)O)c(O)c5-c5cc3ccc5O)[C@H](O)c3ccc(c(Cl)c3)O4)O[C@H](CO)[C@@H](O)[C@@H]2O)O[C@@H](C)[C@H]1O [Telavancin],MIC Values MSSA 29213,[1],0.063 µg/mL
same,MIC Values MRSA 1556,[2],0.063 µg/mL
same,MIC,[3],0.06 µg/mL
same,MIC,"[4]; S. epidermidis (CoNS) MMX 762, MRSE",0.12 µg/mL
same,MIC,"[4]; S. epidermidis (CoNS) MMX 5145, MRSE",0.03 µg/mL
same,MIC,[5],0.06 µg/mL
same,MIC,"[6]; E. faecalis MMX 101 ATCC 29212, VSE",0.12 µg/mL
same,MIC,"[6]; E. faecalis MMX 1086, VanA VRE",1 µg/mL
same,MIC,[6]; E. faecalis MMX 4176,0.25 µg/mL
same,MIC,"[6]; E. faecium MMX 173, VanB VRE",0.06 µg/mL
same,MIC,"[6]; E. faecium MMX 851, VanA VRE",2 µg/mL
same,MIC,[6]; E. faecium MMX 4204,0.06 µg/mL
same,activity against vancomycin-resistant enterococci (VRE),"[6]; VRE, MIC values elevated relative to vancomycin-susceptible enterococci (VSE)",potent activity
same,MIC,"[7]; C. difficile MMX 4381 ATCC 700057, toxinAB-negative",0.12 µg/mL
same,MIC,"[7]; C. difficile MMX 4994 ATCC BAA-1805, ribotype 027",0.12 µg/mL
same,MIC,"[7]; C. difficile MMX 5668 ATCC BAA-1870, NAP1/027",0.12 µg/mL
same,MIC,[8],0.06 µg/mL
same,MIC,[9]; S. agalactiae MMX 427 ATCC 13813,0.06 µg/mL
same,MIC,[9]; S. agalactiae MMX 4088,0.06 µg/mL
same,MIC,"[9]; S. agalactiae MMX 4115, erm^R",0.06 µg/mL
same,MIC,[9]; S. anginosus (AGS) MMX 1201 ATCC 33397,0.06 µg/mL
same,MIC,[9]; S. constellatus (AGS) MMX 5677,0.03 µg/mL
same,MIC,[9]; S. dysgalactiae MMX 5121,0.12 µg/mL
same,MIC,[9]; S. dysgalactiae MMX 5123,0.25 µg/mL
same,MIC,[9]; S. dysgalactiae MMX 5124,0.03 µg/mL
same,MIC,[9]; S. mitis (MGS) MMX 1205 ATCC 49456,0.06 µg/mL
same,MIC,[9]; S. oralis (MGS) MMX 5821,0.06 µg/mL
same,MIC,"[9]; S. pneumoniae MMX 432, PRSP",0.03 µg/mL
same,MIC,[9]; S. pneumoniae MMX 747,0.015 µg/mL
same,MIC,"[9]; S. pneumoniae MMX 1195 ATCC 49619, PISP",0.03 µg/mL
same,MIC,[9]; S. pyogenes MMX 404 ATCC 19615,0.06 µg/mL
same,MIC,"[9]; S. pyogenes MMX 946, ermR",0.06 µg/mL
same,MIC,[9]; S. pyogenes MMX 8778,0.06 µg/mL
same,MIC,[10]; P. acnes MMX 7942 ATCC 6919,0.03 µg/mL
same,MIC,[10]; P. acnes MMX 7946 ATCC 11827,0.015 µg/mL
same,MIC,[11],0.015 µg/mL
same,MIC,[12],0.03 µg/mL
same,RV40 activity as compared to Comparator,"[13]; MRSA strains (Table 5), […]",6 ×
same,MIC,"[13]; S. aureus MMX 100 ATCC 29213, MSSA (quality control)",0.06 µg/mL
same,MIC,"[13]; S. aureus MMX 1723, Mu50, VISA",0.5 µg/mL
same,MIC,"[13]; S. aureus MMX 2010, MRSA",0.06 µg/mL
same,MIC,"[13]; S. aureus MMX 2011 ATCC BAA-1756, MRSA",0.06 µg/mL
same,MIC,"[13]; S. aureus MMX 2124, VISA, DaptoNS",0.5 µg/mL
same,MIC,"[13]; S. aureus MMX 2490, MSSA",0.12 µg/mL
same,MIC,"[13]; S. aureus MMX 3982, MRSA",0.06 µg/mL
same,MIC,"[13]; S. aureus MMX 4658, VISA",0.12 µg/mL
same,MIC,"[13]; S. aureus MMX 4660, VISA",0.12 µg/mL
same,MIC,"[13]; S. aureus MMX 4665, hVISA",0.25 µg/mL
same,MIC,"[13]; S. aureus MMX 4675 ATCC BAA-1556, MRSA",0.06 µg/mL
same,MIC,"[13]; S. aureus MMX 5717 ATCC 33591, MRSA",0.06 µg/mL
same,MIC,"[13]; S. aureus MMX 5985, MRSA",0.06 µg/mL
same,MIC,"[13]; S. aureus MMX 5989, Mu3, hVISA",0.12 µg/mL
same,MIC,"[13]; S. aureus MMX 5999, MRSA",0.06 µg/mL
same,MIC,"[13]; S. aureus MMX 7899, MRSA",0.06 µg/mL
same,MIC,"[13]; S. aureus MMX 7900, MRSA",0.06 µg/mL
same,MIC,"[13]; S. aureus MMX 7901, MRSA",0.03 µg/mL
same,MIC,"[13]; S. aureus MMX 7902, MRSA",0.06 µg/mL
same,MIC,"[13]; S. aureus MMX 7903, MRSA",0.06 µg/mL
same,MIC,"[13]; S. aureus MMX 7907, MSSA",0.06 µg/mL
same,MIC,"[13]; S. aureus MMX 7908, MSSA",0.12 µg/mL
same,MIC,[14],0.06 µg/mL
